According to US20100227827A1, “METHOD OF INCREASING TRYPTOPHAN AND NICOTINAMIDE LEVELS IN VIVO” (priority 2006, published 2010):

Test system: serum protein thiols
Experiment: Serum protein thiols as in vivo anti-oxidant indicator
Design: species or system human
Settings: for Increase in serum protein thiols (ratio): after to before (baseline)
Source text: The following detailed description was designed to standardize the estimation of the in vivo level of serum protein thiols that have been used previously to estimate DNA repair capacity. When a blood sample is collected and the serum isolated, then the level of serum protein thiols is an estimate of the concentration between thiols and disulfides existing in protein structures that are in turn equilibrated to the existing oxidant environment in vivo. Thus, serum protein thiol analyses are an in vivo estimate of the antioxidant status of an individual that is in turn regulated by DNA repair.
A stock solution of the colorimetric agent 5,5′-dithio-bis-(2-nitrobenzoic acid (DTNB), was prepared using: 9.5 mg/ml solid DTNB, 0.1 M K2HPO4, and 17.5 mM EDTA. pH was adjusted to 7.5 and then diluted to desired volume. Working DTNB solution was prepared by diluting DTNB stock solution 1:50 with saline. Solutions of L-cysteine were prepared and a standard curve was constructed desirably be in the 0-100 μM range. Stock solutions were diluted as required and absorbance was measured using 96-well flat-bottom microtiter plate. 50 μL-cysteine solution with 200 μl working DTNB solution was placed per well. […]
A DTNB blank (50 μl saline+200 μl DTNB) was made. Absorbance values were made at 412 nm with a microtiter plate scanner spectrophotometer. The average of every concentration was calculated and DTNB blank was subtracted from every value. Using a plot of concentration (x-axis) vs. absorbance (y-axis) by comparison with standard cysteine solutions the cysteine concentration was determined.
A saturated ammonium sulfate solution was prepared. […] Absorbance in microtiter plate scanner set at 412 nm was measured making sure that bubbles in the well are avoided.
The average was calculated for the DTNB blank and the saline blank. […]
Then the corrected serum value was subtracted from the corrected sample value. This value was the final serum thiol value expressed as absorbance at […]. […]
Altogether this was a 20 fold dilution (4×5=20). […] Thiols were hereby measured in nmoles/0.72 ml.

O=C(O)[C@]1(O)C[C@@H](O)[C@@H](O)[C@H](O)C1 [Aqua Bimini™, quinic acid ammonium chelate]
Increase in serum protein thiols (ratio) (3000 mg/day for 36 days): 1.26 | Increase in serum protein thiols (ratio) (HL 1500 mg/day for 36 days): 1.22 | reduced thiols (—SH) in serum proteins (supplementation 1500 or 3000 mg/day, treatment and follow-up versus baseline): significant increase
